{"source": "patent US8557847B2", "about": "“Synergistic modulation of FLT3 kinase using a FLT3 inhibitor and a farnesyl transferase inhibitor” (Janssen Pharmaceutica, N.V., priority 2005, dated 2013)", "note": "Counter-ions that a name gives are not always drawn.", "data": [{"target": "T1, isolated kinase domain of the human FLT3 receptor (a.a. 571-993) (Homo sapiens, UniProt P36888)", "T1 construct": "human FLT3 receptor (a.a. 571-993)", "T1 sequence (P36888 571-993)": "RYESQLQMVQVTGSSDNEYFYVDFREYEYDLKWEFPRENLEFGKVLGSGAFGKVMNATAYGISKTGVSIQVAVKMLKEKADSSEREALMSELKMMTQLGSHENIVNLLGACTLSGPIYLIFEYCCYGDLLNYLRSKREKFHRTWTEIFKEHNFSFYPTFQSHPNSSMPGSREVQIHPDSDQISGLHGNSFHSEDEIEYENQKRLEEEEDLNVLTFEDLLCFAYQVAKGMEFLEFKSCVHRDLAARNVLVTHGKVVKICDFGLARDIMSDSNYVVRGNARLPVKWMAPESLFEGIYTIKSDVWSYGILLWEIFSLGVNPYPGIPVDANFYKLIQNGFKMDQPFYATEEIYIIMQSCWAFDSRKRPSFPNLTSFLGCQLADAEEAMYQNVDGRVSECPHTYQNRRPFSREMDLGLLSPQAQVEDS", "assay": "FLT3 fluorescence polarization kinase assay", "type": "biochemical", "details": "150 uM ATP; uncertainty ±10%; read-out: Flt-3 IC50", "description": "The FLT3 FP assay utilizes the fluorescein-labeled phosphopeptide and the anti-phosphotyrosine antibody included in the Panvera Phospho-Tyrosine Kinase Kit (Green) supplied by Invitrogen. When FLT3 phosphorylates polyGlu4Tyr, the fluorescein-labeled phosphopeptide is displaced from the anti-phosphotyrosine antibody by the phosphorylated poly Glu4Tyr, thus decreasing the FP value. […] The kinase reaction is stopped with the addition of EDTA. The fluorescein-labeled phosphopeptide and the anti-phosphotyrosine antibody are added and incubated for 30 minutes at room temperature.\nData points are an average of triplicate samples. Inhibition and IC50 data analysis was done with GraphPad Prism using a non-linear regression fit with a multiparamater, sigmoidal dose-response (variable slope) equation.", "units": {"IC50": "nM"}, "values": [{"smiles": "N#Cc1c[nH]c(C(=O)Nc2ccc(C3CCN(C(CO)CO)CC3)cc2C2=CCCCC2)n1", "note": "[Compound 6, 4-Cyano-1H-imidazole-2-carboxylic acid {2-cyclohex-1-enyl-4-[1-(2-hydroxy-1-hydroxymethyl-ethyl)-piperidin-4-yl]-phenyl}-amide trifluoroacetic acid salt]", "IC50": 82}, {"smiles": "Cc1ccccc1-c1cc(N2CCN(C)CC2)ccc1NC(=O)c1ccc(C#N)o1", "note": "[Compound 9, 5-Cyano-furan-2-carboxylic acid [2′-methyl-5-(4-methyl-piperazin-1-yl)-biphenyl-2-yl]-amide]", "IC50": 97}, {"smiles": "CN1CCN(c2ccc(NC(=O)c3ccc(C#N)o3)c(C3=CCCCC3)c2)CC1", "note": "[Compound 11, 5-Cyano-furan-2-carboxylic acid [2-cyclohex-1-enyl-4-(4-methyl-piperazin-1-yl)-phenyl]-amide]", "IC50": 260}, {"smiles": "CN1CCN(c2ccc(NC(=O)c3ccc(C#N)o3)c(C3=CCOCC3)c2)CC1", "note": "[Compound 12]", "IC50": 1240}, {"smiles": "N#Cc1c[nH]c(C(=O)Nc2ccc(C3CCNCC3)cc2C2=CCCCC2)c1", "note": "[Compound 13, 4-Cyano-1H-pyrrole-2-carboxylic acid (2-cyclohex-1-enyl-4-piperidin-4-yl-phenyl)-amide trifluoroacetic acid salt]", "IC50": 34}, {"smiles": "CC(=O)N1CCC(c2ccc(NC(=O)c3nc(C#N)c[nH]3)c(C3=CCCCC3)c2)CC1", "note": "[Compound 16, 4-Cyano-1H-imidazole-2-carboxylic acid [4-(1-acetyl-piperidin-4-yl)-2-cyclohex-1-enyl-phenyl]-amide]", "IC50": 39}, {"smiles": "CC1CC=C(c2cc(C3CCNCC3)ccc2NC(=O)c2nc(C#N)c[nH]2)CC1", "note": "(centres unmarked) [Compound 17, 4-Cyano-1H-imidazole-2-carboxylic acid [2-(4-methyl-cyclohex-1-enyl)-4-piperidin-4-yl-phenyl]-amide trifluoroacetic acid salt]", "IC50": 13}, {"smiles": "CS(=O)(=O)CC(=O)N1CCC(c2ccc(NC(=O)c3nc(C#N)c[nH]3)c(C3=CCCCC3)c2)CC1", "note": "[Compound 20, 4-Cyano-1H-imidazole-2-carboxylic acid {2-cyclohex-1-enyl-4-[1-(2-methanesulfonyl-acetyl)-piperidin-4-yl]-phenyl}-amide]", "IC50": 130}, {"smiles": "Cn1ccnc1CN1CCC(c2ccc(NC(=O)c3nc(C#N)c[nH]3)c(C3=CCCC3)c2)CC1", "note": "[Compound 23, 4-Cyano-1H-imidazole-2-carboxylic acid {2-cyclopent-1-enyl-4-[1-(1-methyl-1H-imidazol-2-ylmethyl)-piperidin-4-yl]-phenyl}-amide trifluoroacetic acid salt]", "IC50": 16}, {"smiles": "N#Cc1c[nH]c(C(=O)Nc2ccc(C3CCN(C(N)=O)CC3)cc2C2=CCCCC2)n1", "note": "[Compound 24, 4-{4-[(4-Cyano-1H-imidazole-2-carbonyl)-amino]-3-cyclohex-1-enyl-phenyl}-piperidine-1-carboxylic acid amide]", "IC50": 370}, {"smiles": "N#Cc1c[nH]c(C(=O)Nc2ccc(C3CCN(CCO)CC3)cc2C2=CCCCC2)n1", "note": "[Compound 26, 4-Cyano-1H-imidazole-2-carboxylic acid {2-cyclohex-1-enyl-4-[1-(2-hydroxy-ethyl)-piperidin-4-yl]-phenyl}-amide trifluoroacetic acid salt]", "IC50": 53}, {"smiles": "N#Cc1c[nH]c(C(=O)Nc2ccc(C3CCS(=O)(=O)CC3)cc2C2=CCCCC2)n1", "note": "[Compound 35, 4-Cyano-1H-imidazole-2-carboxylic acid [2-cyclohex-1-enyl-4-(1,1-dioxo-hexahydro-1λ^6-thiopyran-4-yl)-phenyl]-amide]", "IC50": 120}, {"smiles": "N#Cc1c[nH]c(C(=O)Nc2ccc(C3CCNCC3)cc2C2=CCS(=O)(=O)CC2)n1", "note": "[Compound 36, 4-Cyano-1H-imidazole-2-carboxylic acid [2-(1,1-dioxo-1,2,3,6-tetrahydro-1λ6-thiopyran-4-yl)-4-piperidin-4-yl-phenyl]-amide trifluoroacetic acid salt]", "IC50": 9100}, {"smiles": "CC(=O)N1CCC(c2ccc(NC(=O)c3nc(C#N)c[nH]3)c(C3=CCCNC3)c2)CC1", "note": "[Compound 46, 4-Cyano-1H-imidazole-2-carboxylic acid [4-(1-acetyl-piperidin-4-yl)-2-(1,2,5,6-tetrahydro-pyridin-3-yl)-phenyl]-amide trifluoroacetic acid salt]", "IC50": 39}, {"smiles": "C[C@@H]1CC(c2ccc(NC(=O)c3ncc(C#N)[nH]3)c(C3=CCCCC3)c2)C[C@H](C)N1", "note": "(stereo partly drawn) [Compound 51a, 5-Cyano-1H-imidazole-2-carboxylic acid [2-cyclohex-1-enyl-4-(cis-2,6-dimethyl-piperidin-4-yl)-phenyl]-amide bis trifluoroacetic acid salt]", "IC50": 2.3}, {"smiles": "CC1(C)CC=C(c2nc(C3CCN(CCS(C)(=O)=O)CC3)ccc2NC(=O)c2nc(C#N)c[nH]2)CC1", "note": "[Compound 56, 4-Cyano-1H-imidazole-2-carboxylic acid [6-(4,4-dimethyl-cyclohex-1-enyl)-1′-(2-methanesulfonyl-ethyl)-1′,2′,3′,4′,5′,6′-hexhydro-[2,4]bipyridinyl-5-yl]-amide trifluoroacetic acid salt]", "IC50": 140}]}, {"tested_on": "MV4-11 cells", "assay": "Inhibition of MV4-11 cell proliferation (CellTiterGlo)", "type": "cell-based", "details": "Homo sapiens, 72 hours growth, uncertainty ±20%", "procedure": "To assess the cellular potency of compounds of the present invention, FLT3 specific growth inhibition was measured in the leukemic cell line MV4-11 (ATCC Number: CRL-9591). […] MV4-11 cells cannot grow and survive without active FLT3ITD.\nTo measure proliferation inhibition by compounds of the present invention, the luciferase based CellTiterGlo reagent (Promega), which quantifies total cell number based on total cellular ATP concentration, was used. Cells are plated at 10,000 cells per well in 100 ul of in RPMI media containing penn/strep, 10% FBS and 1 ng/ml GM-CSF or 1 ng/ml IL-3 for MV4-11 and Baf3 cells respectively.\nCompound dilutions or 0.1% DMSO (vehicle control) are added to cells and the cells are allowed to grow for 72 hours at standard cell growth conditions (37° C., 5% CO2). For activity measurements in MV4-11 cells grown in 50% plasma, cells were plated at 10,000 cells per well in a 1:1 mixture of growth media and human plasma (final volume of 100 μL). To measure total cell growth an equal volume of CellTiterGlo reagent was added to each well, according to the manufacturer's instructions, and luminescence was quantified. Total cell growth was quantified as the difference in luminescent counts (relative light units, RLU) of cell number at Day 0 compared to total cell number at Day 3 (72 hours of growth and/or compound treatment). One hundred percent inhibition of growth is defined as an RLU equivalent to the Day 0 reading. Zero percent inhibition was defined as the RLU signal for the DMSO vehicle control at Day 3 of growth.\nData points are an average of triplicate samples. […] Inhibition and IC50 data analysis was done with GraphPad Prism using a non-linear regression fit with a multiparamater, sigmoidal dose-response (variable slope) equation. MV4-11 cells express the FLT3 internal tandem duplication mutation, and thus are entirely dependent upon FLT3 activity for growth. […] In contrast, the Baf3 cell proliferation is driven by the cytokine IL-3 and thus is used as a non-specific toxicity control.", "units": {"IC50": "nM"}, "values": [{"smiles": "N#Cc1c[nH]c(C(=O)Nc2ccc(C3CCN(CCN4CCOCC4)CC3)cc2C2=CCCCC2)n1", "note": "[Compound 34, 4-Cyano-1H-imidazole-2-carboxylic acid {2-cyclohex-1-enyl-4-[1-(2-morpholin-4-yl-ethyl)-piperidin-4-yl]-phenyl}-amide di-trifluoroacetic acid salt]", "IC50": 8}, {"smiles": "N#Cc1c[nH]c(C(=O)Nc2ccc(C3CCNCC3)cc2C2=CCS(=O)(=O)CC2)n1", "note": "[Compound 36, 4-Cyano-1H-imidazole-2-carboxylic acid [2-(1,1-dioxo-1,2,3,6-tetrahydro-1λ6-thiopyran-4-yl)-4-piperidin-4-yl-phenyl]-amide trifluoroacetic acid salt]", "IC50": 192}, {"smiles": "CS(=O)(=O)CCN1CCC(c2ccc(NC(=O)c3nc(C#N)c[nH]3)c(C3=CCCCC3)c2)CC1", "note": "[Compound 40, 4-Cyano-1H-imidazole-2-carboxylic acid {2-cyclohex-1-enyl-4-[1-(2-methanesulfonyl-ethyl)-piperidin-4-yl]-phenyl}-amide]", "IC50": 116}]}, {"target": "T2, wild-type FLT3 phosphorylation in Baf3 FLT3 cells (Homo sapiens, UniProt P36888)", "T2 construct": "host or cells: Baf3 (murine B cell lymphoma line)", "T2 sequence (P36888 27-993)": "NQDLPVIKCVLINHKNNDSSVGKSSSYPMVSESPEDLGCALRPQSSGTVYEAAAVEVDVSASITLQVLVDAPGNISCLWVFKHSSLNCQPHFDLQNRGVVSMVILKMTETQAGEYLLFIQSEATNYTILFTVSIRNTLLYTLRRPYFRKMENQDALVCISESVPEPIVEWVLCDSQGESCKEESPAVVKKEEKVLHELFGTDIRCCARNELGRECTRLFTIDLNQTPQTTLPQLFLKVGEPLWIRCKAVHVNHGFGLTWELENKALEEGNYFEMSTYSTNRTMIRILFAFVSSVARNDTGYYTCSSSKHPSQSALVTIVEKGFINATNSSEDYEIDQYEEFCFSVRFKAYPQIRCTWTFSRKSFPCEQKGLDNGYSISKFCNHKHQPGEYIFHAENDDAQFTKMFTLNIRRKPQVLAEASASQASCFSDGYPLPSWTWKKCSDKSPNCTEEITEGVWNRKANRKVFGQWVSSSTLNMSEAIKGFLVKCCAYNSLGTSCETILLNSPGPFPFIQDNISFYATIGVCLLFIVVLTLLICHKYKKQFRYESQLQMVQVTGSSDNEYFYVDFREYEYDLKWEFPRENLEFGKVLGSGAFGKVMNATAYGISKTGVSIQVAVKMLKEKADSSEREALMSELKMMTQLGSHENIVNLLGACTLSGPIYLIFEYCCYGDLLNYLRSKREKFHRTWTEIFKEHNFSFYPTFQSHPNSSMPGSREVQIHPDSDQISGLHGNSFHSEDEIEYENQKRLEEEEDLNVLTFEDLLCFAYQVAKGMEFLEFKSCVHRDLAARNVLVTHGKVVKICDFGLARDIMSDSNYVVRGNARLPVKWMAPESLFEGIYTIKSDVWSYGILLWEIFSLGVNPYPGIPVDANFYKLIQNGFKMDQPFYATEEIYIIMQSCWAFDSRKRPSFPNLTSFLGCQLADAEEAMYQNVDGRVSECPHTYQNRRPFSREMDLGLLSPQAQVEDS", "assay": "Cell-based FLT3 receptor ELISA", "details": "uncertainty ±20%", "description": "Data points are an average of triplicate samples. […] Leukemia.", "units": {"IC50": "nM"}, "values": [{"smiles": "CN1CCN(c2ccc(NC(=O)c3ccc(C#N)o3)c(C3=CCCCC3)c2)CC1", "note": "[Compound 11, 5-Cyano-furan-2-carboxylic acid [2-cyclohex-1-enyl-4-(4-methyl-piperazin-1-yl)-phenyl]-amide]", "IC50": 1300}]}]}
